Key:
[1] = system: HepG2 cancer cells; experiment: Annexin-V-FITC/PI apoptosis/necrosis flow cytometry, HepG2; type: cell-based, human; details: HepG2, IC50 = 13.14 μM, 48 h
Procedure: (See supplementary information for the detailed methodology of flow cytometric analyses, including “FITC/Annexin-V-FITC/PI differential apoptosis/necrosis”, “DNA content-flow cytometry aided cell cycle”, and “Caspase 3/7 green flow cytometry”).
Supplementary materials for detailed methodology
2.2.2.1. Flow cytometric analysis
2.2.2.1.1. FITC/Annexin-V-FITC/PI Differential Apoptosis/Necrosis Assessment Apoptosis and necrosis cell populations are determined using Annexin V-FITC apoptosis detection kit (Abcam Inc., Cambridge Science Park, Cambridge, UK) coupled with 2 fluorescent channels flowcytometry. After treatment with test compounds for 48 h, cells (10^5 cells) are collected by trypsinization and washed twice with ice-cold PBS (pH 7.4). Then, cells are incubated in dark with 0.5 ml of Annexin V-FITC/PI solution for 30 min in dark at room temperature according to manufacturer protocol. After staining, cells are injected via ACEA Novocyte™ flowcytometer (ACEA Biosciences Inc., San Diego, CA, USA) and analyzed for FITC and PI fluorescent signals using FL1 and FL2 signal detector, respectively (λex/em 488/530 […]
nm for FITC and λex/em 535/617 nm for PI). […]
NovoExpress™ software (ACEA Biosciences Inc., San Diego, CA, USA).
2.2.2.1.3. Caspase- 3/7 green flow cytometry assay
The ability of compounds 4 and 9 to induce the enzymatic activities of caspase 3/7 in HL60 and HepG2 respectively were assayed using caspase 3/7 green flow cytometry assay method. Briefly, control and the tested compounds treated cells (2.5x10^5/mL) were rinsed with ice cold PBS, cell lysates were prepared and subsequently protein

[2] = system: Normal Liver THLE2; experiment: MTT cytotoxicity assay, normal THLE2; type: cell-based; details: Homo sapiens, THLE-2, 48 h, read-out: IC50 (µM) ± SEM, Normal Liver THLE2
Procedure: (§1) Cytotoxic activities of the synthesized derivatives were screened against leukemia (HL60), liver (HepG2), breast (MCF-7), and lung (A549) cancer cell lines and non-cancerous THLE2 and WISH cells at different concentrations [0.01–100 µM] for 48 h using the MTT assay (Table 1).
(§2) Human promyelocytic leukemia ”HL-60”, human hepatocellular carcinoma “HepG2”, human breast cancer “MCF-7”, human lung cancer “A549” cell lines, and two normal cell lines, THLE-2 as normal adult liver epithelial cells and WISH as normal epithelial cells, were obtained from American Type Culture Collection “Rockville, MD, USA”.
(§3) According to the manufacturer’s protocol, the cells were seeded in 96-well plates at a concentration of 5 × 10^4 cells per well (200 µL). Different concentrations of the tested compounds were used to test the cytotoxicity. […] A non-linear regression of curve fit was used to calculate the IC50.

[3] = system: HepG2 cells; experiment: Agarose gel electrophoresis DNA fragmentation, HepG2; type: cell-based, human
[4] = system: Breast Cancer MCF-7; experiment: MTT cytotoxicity assay, MCF-7; type: cell-based; details: Homo sapiens, MCF7, 48 h, read-out: IC50 (µM) ± SEM, Breast Cancer MCF-7
Procedure: as §1, §2, §3

[5] = system: Lung Cancer A549; experiment: MTT cytotoxicity assay, A549; type: cell-based; details: Homo sapiens, 48 h, read-out: IC50 (µM) ± SEM, Lung Cancer A549
Procedure: as §1, §2, §3

[6] = system: Normal WISH Cells; experiment: MTT cytotoxicity assay, normal WISH; type: cell-based; details: 48 h, read-out: IC50 (µM) ± SEM, Normal WISH Cells
Procedure: as §1, §2, §3

[7] = system: p-PI3K and p-Akt in HepG2 cells; experiment: Western blotting p-PI3K and p-AKT, HepG2; type: cell-based, human; details: HepG2, with respect to control untreated cells
Procedure: Western blotting analysis was conducted using untreated and treated HepG2 and HL60 cells. Cells were washed in PBS and lysed in a boiling sample buffer (62.5 mM Tris-HCl pH 6.8, 1% SDS, 10% glycerol, and 5% β-mercaptoethanol) for sodium dodecyl sulfate polyacrylamide gel electrophoresis (SDS-PAGE). The lysates were boiled for 5 min with a lamellae buffer, and the proteins were separated by SDS-PAGE and transferred to an Immobilon membrane (Millipore, Burlington, MA, USA). After incubation in 5% non-fat dry milk, Tris-HCL, 0.1% Tween 20 for 1 h, p-PI3K, and p-AKT, primary antibodies were added to one of the membranes containing specimen samples and incubated at 4 °C overnight. Appropriate secondary antibodies were incubated for 2 hr at room temperature. After being washed twice n 1× TBS-T, densitometric analysis of the immunoblots was performed to quantify the amounts of p-PI3K and p-AKT against the control sample by total protein normalization using Image analysis software on the ChemiDoc MP imaging system (version 3) produced by Bio-Rad (Hercules, CA, USA).
concentration was measured. Lysates were combined with reaction buffer and
incubated with Caspase 3/7 Detection Reagent (specific colorimetric substrates) at 37
°C for 6 h. The samples were estimated at λ 488 nm in BD FACS Calibur flow
2.2.2.3. […]
the immunoblots was performed to quantify the amounts of p-PI3K and p-AKT against […]

[8] = system: P53, Bax, Caspase 3, Caspase 7, PI3k, AKT, and Bcl-2 mRNA in HepG2 cells; experiment: RT-PCR relative mRNA expression of apoptosis-related genes, HepG2; type: cell-based, human; details: HepG2, IC50 = 13.14 μM, 48 h; versus β-actin; untreated control = 1
[9] = system: Liver Cancer HepG2; experiment: MTT cytotoxicity assay, HepG2; type: cell-based, human; details: Homo sapiens, HepG2, 48 h, read-out: IC50 (µM) ± SEM, Liver Cancer HepG2
Procedure: as §1, §2, §3

## Cc1c(Br)c(=O)oc2c(Br)c(OC(=O)/C=C/c3ccccc3)c(Br)cc12 [Compound 8b, (2E)-3,6,8-Tribromo-4-methyl-2-oxo-2H-chromen-7-yl Cinnamate]
[1]
  Increase of apoptotic cell death versus control: 6.88 fold
  Increase of necrosis-mediated cell death versus control: 1.66 fold
[1]; control 0.96%
  Necrosis, cell percentage: 1.59%
[2]
  IC50: 86.5 ± 2.16 µM
[3]
  DNA fragmentation: Loss of intact DNA fragments
[4]
  IC50: 7.35 ± 0.67 µM
[5]
  IC50: 4.63 ± 0.16 µM
[6]
  IC50: 96.8 ± 3.21 µM
[7]
  levels of p-PI3K and p-Akt: effectively suppressed
[8]
  AKT relative mRNA expression: 0.72 fold
  Bax relative mRNA expression: 1.51 fold
  Bcl-2 relative mRNA expression: 0.75 fold
  P53 relative mRNA expression: 3.89 fold
  PI3K relative mRNA expression: 0.75 fold
  caspase 3 relative mRNA expression: 4.63 fold
  caspase 7 relative mRNA expression: 3.63 fold
[9]
  IC50: 13.1 ± 0.22 µM

Source: article PMC9571264 (Molecules, 2022)
